Where only a bound is given, the exact number is not on record here.

Series [1] deals with Toxoplasma gondii. As to the kind of experiment: Antimicrobial activity against Toxoplasma gondii assessed as inhibition of growth measured after 5 days by beta-galactosidase assay. As to conditions: 120 h, read-out: ID50 (the source's name). In kind it is functional.
A short description of series [2]: Therapeutic index, ratio of TD50 for human foreskin fibroblast cells to ID 50 for Toxoplasma gondii. It counts as cell-based. As to conditions: read-out: TI.
A short description of series [3]: Cytotoxicity against human foreskin fibroblast cells by colorimetric method. The conditions noted are these: human foreskin fibroblast (HFF) cells, read-out: TD50 (the source's name). It counts as cell-based.

Turning to `O=c1c2ccccc2nc2n1-c1ccc(Br)cc1/C2=N/O`, the IC50 in series [1] was 0.085 µM. The selectivity ratio in series [2] is 590. For the same molecule, the CC50 in series [3] came out at 50 µM.
Taken in the same sequence, the figures for `CC(=O)O/N=C1\c2ccccc2-n2c1nc1ccccc1c2=O` were 1.1 µM, 32 and 35 µM.
Taken in the same sequence, the figures for `O=CO/N=C1\c2ccccc2-n2c1nc1ccccc1c2=O` were 0.62 µM, 35 and 22 µM.
Taken in the same sequence, the figures for `N/N=C1/c2ccccc2-n2c1nc1ccccc1c2=O` were 2 µM, 16 and 32 µM.
For `N/N=C1/c2cc(Br)ccc2-n2c1nc1ccccc1c2=O`, the IC50 in series [1] worked out at 0.31 µM. For the same molecule, the selectivity ratio in series [2] came out at 250. Besides, in series [3], the CC50 is 79 µM.
Taken in the same sequence, the figures for `CC(=O)N/N=C1/c2ccccc2-n2c1nc1ccccc1c2=O` were 12 µM, more than 8.3 and more than 100 µM.
For `O=C(N/N=C1/c2ccccc2-n2c1nc1ccccc1c2=O)C(F)(F)F`, in that order: 1.6 µM, more than 63 and more than 100 µM.
For `CC1(O)c2cc(Br)ccc2-n2c1nc1ccccc1c2=O` (configuration not stated), in that order: 7 µM, more than 14 and more than 100 µM.
Consider `O=C1c2ccccc2N[C@H]2[C@H](O)c3ccccc3N12`, for which the IC50 in series [1] is 0.24 µM. The selectivity ratio in series [2] came out at 50. In addition, in series [3], the CC50 was determined as 12 µM.
On to `O=C1c2ccccc2N[C@H]2[C@H](O)c3cc(Br)ccc3N12`, for which the IC50 in series [1] stood at 0.002 µM. Besides, the selectivity ratio in series [2] was more than 50000. In addition, in series [3], the CC50 is more than 100 µM.
On to `CC(=O)O[C@@H]1c2ccccc2N2C(=O)c3ccccc3N[C@@H]12`, for which the IC50 in series [1] stood at 1 µM. Further, the selectivity ratio in series [2] worked out at 40. Also, the CC50 in series [3] amounted to 40 µM.
For `O=Nc1c2ccccc2n2c(O)c3ccccc3nc12`, in that order: 0.8 µM, more than 130 and more than 100 µM.
Taken in the same sequence, the figures for `O=C1c2cc(Br)ccc2-n2c1nc1ccccc1c2=O` were 0.00323 µM, more than 33000 and more than 100 µM.
For `CC1(O)c2ccccc2-n2c1nc1ccccc1c2=O` (configuration not stated), in that order: 8.7 µM, more than 11 and more than 100 µM.
Turning to `CON=C1c2ccccc2-n2c1nc1ccccc1c2=O` (mixture of isomers), the IC50 in series [1] came out at 1.3 µM. The selectivity ratio in series [2] is more than 77. Moreover, the CC50 in series [3] was more than 100 µM.
In the case of `CON=C1c2cc(Br)ccc2-n2c1nc1ccccc1c2=O` (single isomer, unassigned), the IC50 in series [1] is 0.083 µM. Moreover, the selectivity ratio in series [2] is more than 1200. Also, the CC50 in series [3] is more than 100 µM.
Taken in the same sequence, the figures for `CC(=O)CC1(O)c2ccccc2-n2c1nc1ccccc1c2=O` (configuration not stated) [PHAITANTHRINS A] were 0.23 µM, 49 and 11 µM.
Taken in the same sequence, the figures for `COc1cc(Cc2cnc(N)nc2N)cc(OC)c1OC` [TRIMETHOPRIM] were 15 µM, more than 3 and more than 100 µM.
Taken in the same sequence, the figures for `O=C1c2ccccc2-n2c1nc1ccccc1c2=O` [TRYPTANTHRIN] were 0.14 µM, 45 and 6.4 µM.
